Literature values, collected in US9351926B2 (Pharmaceutical Solutions Industry Ltd., priority 2012, dated 2016).

Columns and labels:
[1] = children, overdose
platelet aggregation = conditions: single dose 400 mg within 8 hours before or within 30 minutes after immediate release aspirin (81 mg)
[2] = low dose (e.g. 1200 mg daily); epidemiological studies

| ingested dose that may cause symptoms [1] | Bioavailability (in vivo) | Excretion (in vivo) | concentration in breast milk (limited studies) | time of peak serum concentrations after ingestion (oral, empty stomach) | time of peak levels after administration (oral, taken with food) | interconversion into the active [+]S species (in adults) | SMILES | effect on the action of aspirin on thromboxane formation or platelet aggregation (platelet aggregation) | risk of myocardial infarction [2] |
| --- | --- | --- | --- | --- | --- | --- | --- | --- | --- |
| more than 400 mg/kg | 49-73% | Renal | very low concentrations | 45 min | 1 to 2 h |  | CC(C)Cc1ccc(C(C)C(=O)O)cc1 (racemic) [Ibuprofen, (RS)-2-(4-(2-methylpropyl)phenyl) propanoic acid] | decreased effect of aspirin on the formation of thromboxane or platelet aggregation | do not suggest that low dose ibuprofen (e.g. 1200 mg daily) is associated with an increased risk of myocardial infarction |
|  |  |  |  |  |  | ~60% | CC(C)Cc1ccc([C@@H](C)C(=O)O)cc1 [HR-form] |  |  |
